Results from US6534496B1, “Thermogenic composition and benzazepine thermogenics” (Takeda Chemical Industries, Inc., priority 1997, dated 2003).
Where a name gives a salt, the structure may show the parent alone. Marks after values point to notes of the source that are not given here.

Columns and labels:
[1] = Assay of reducing activity against weight gain of mice; type: in vivo, Male C57BL db/db mice
Protocol: Male C57BL db/db mice (CLEA Japan Inc., 10 weeks old) was pretreated for 7 days, with solid feed (CLEA Japan Inc., CE-2). After acclimatization, 0.3 mg/kg or 1.0 mg/kg of the compound which, was obtained in Example 23, was oraly administrated for 6 weeks. Body weight was measured after the final administration. After the measurement, total blood was successively drawn from the orbital vain, and the visceral fat was collected and its weight was measured. Statistics analysis was carried out with Dunnett anlalysis.

[2] = Assay of thermogenic activity in mice (Test Example 4); type: in vivo, male C57BL db/db mice; settings: 1 mg/kg orally for 6 days; 24 hours-average regional temperature after the final administration; N=6
Protocol: The telethermometer (VltaView™, Mini-Mitter Co., Inc., USA) was inplanted subcutaneously border on the scapulae of male C57BL db/db mice (CLEA Japan Inc., N=6) anesthetized with ether. After 7 days acclimatization, 1 mg/kg of the compound which was obtained in Example 23, was orally administrated for 6 days. The 24 hours-average regional temperature after the final administration was measured. The control was administrated 0.5% methylcellulose solution.

[3] = system: murine preadipocyte line (3T3-L1); assay: Assay of intraadipocyte cAMP increasing activity using murine preadipocyte line (3T3-L1) (Test Example 3, compounds of the Examples); type: cell-based; settings: Table 14
Protocol: The intraadipocyte cAMP concentration-increasing activity of the above compound (I) was determined in an assay system using murine preadipocyte line 3T3-L1. Thus, 3T3-L1 preadipocytes were seeded onto a 96-well microtiter plate (10,000 cells/well) and cultured for 5-6 days until a confluent growth was formed. Thereafter, the adipocytes were further cultured for 72 hours. The test compound (I) (10^−5M, 10^−6M, 10^−7M, 10^−8M, and 10^−9M) was then added and the plate was allowed to sit at 37° C. for 40 minutes. The cells were washed with 3 portions of phosphate buffer at 4° C. (100 μl/well). Then, 0.1 N hydrochloric acid was added and the cells were denatured at 95° C. for 10 minutes. From each well, 25 μl was aspirated and dissolved in 75 μl of the assay a buffer included in Cyclic AMP Enzyme Immunoassay Kit (Kayman Chemical Company, USA). Using a 50 μl portion as the sample, cAMP was assayed using the above-mentioned Kit. Thus, using a 96-well microtiter plate precoated with anti-rabbit IgG mouse antibody, the above sample (50 μl) as well as the Cyclic AMP Tracer (50 μl) and Cyclic AMP Rabbit Antibody (50 μl) from the Kit were added and the plate was incubated at room temperature for 18 hours. After asperation, the plate was washed with 4 portions of the wash buffer (400 μl/well). Then, 200 μl of the color reagent included in the Kit was added to each well and the plate was incubated at room temperature with'shaking for 60 minutes. After completion of the reaction, the absorbance was measured at 405 nm to quantitate the cAMP.
Each value is the mean result of 4 experiments. The test for statistical significance against the CAMP concentration of the control experiment (the test compound not added) was carried out by the known ANOVA. (* p<05 vs. control)
Using the compounds obtained in Examples 1 through 130, as well as their salts, their intraadipocyte cAMP increasing activities were assayed by the same procedure as in Test Example 1.

[4] = second line of Example 23, dose printed 0.3 mg/kg, orally for 6 weeks
[5] = concentration of test compound 10^−5M
[6] = concentration of test compound 10^−6M
[7] = concentration of test compound 10^−7M
[8] = concentration of test compound 10^−8M
[9] = concentration of test compound 10^−9M

## CC(=O)N1CCC(CCC(=O)c2ccc3c(c2)CCN(Cc2ccccc2)CC3)CC1.Cl [Example 23, 3-(1-Acetyl-4-piperidinyl)-1-[3-(phenylmethyl)-2,3,4,5-tetrahydro-1H-3-benzazepin-7-yl]-1-propanone Hydrochloride]
[1]; 0.3 mg/kg orally for 6 weeks
  Amount of visceral fat (average ± S.E.): 5.47 ± 0.36 g
  Body weight, ending date of administration (average ± S.E.): 40.87 ± 1.57 g
  Body weight, starting date of administration (average ± S.E.): 40.21 ± 0.48 g
[1]; 1.0 mg/kg orally for 6 weeks
  Amount of visceral fat (average ± S.E.): 5.13 ± 0.39 g
[1]; [4]
  Body weight, ending date of administration (average ± S.E.): 39.75 ± 1.55 g
  Body weight, starting date of administration (average ± S.E.): 40.40 ± 0.69 g
[2]
  Regional temperature: 35.54 °C

## O=C(CCC1CCNCC1)c1ccc2c(c1)CCN(Cc1ccccc1)CC2 [Example 24, 1-[3-(phenylmethyl)-2,3,4,5-tetrahydro-1H-3-benzazepin-7-yl]-3-(4-piperidinyl)-1-propanone]
other
  melting point: 134 to 137 °C

## CC(=O)N1CCC(CCC(=O)c2ccc3c(c2)CCN3c2ccncc2)CC1 [Example 61, 3-(1-Acetyl-4-piperidinyl)-1-[1-(4-pyridyl)-2,3-dihydroindol-5-yl]-1-propanone]
other
  melting point: 157 to 158 °C

## CC(=O)N1CCC(CCC(=O)c2cc3c4c(c2)CCN4C(=O)CC3)CC1 [Example 66, 8-[3-(1-Acetyl-4-piperidinyl)-1-oxopropyl]-1,2,5,6-tetrahydro-4H-pyrrolo[3,2,1-ij]quinolin-4-one]
other
  melting point: 160 to 161 °C

## CC(=O)N1CCC(CCC(=O)c2ccc3c4c2CCCC4CN3C(C)=O)CC1 (centres unmarked) [Example 67, 3-(1-Acetyl-4-piperidinyl)-1-(1-acetyl-1,2,2a,3,4,5-hexahydrobenz[cd]indol-6-yl)-1-propanone]
other
  melting point: 130 to 132 °C

## CC(=O)N1CCC(CCC(=O)c2ccc3c(c2)CNc2ccccc2CC3)CC1 [Example 69, 3-(1-Acetyl-4-piperidinyl)-1-(5,6,11,12-tetrahydrodibenz[bf]azocin-8-yl)-1-propanone]
other
  melting point: 153 to 155 °C

## CC(=O)N1CCC(CCCC(=O)c2ccc3c(c2)CCN(Cc2ccccc2C)CC3)CC1 [Example 125, 4-(1-Acetyl-4-piperidinyl)-1-[3-[(2-methylphenyl)methyl]-2,3,4,5-tetrahydro-1H-3-benzazepin-7-yl]-1-butanone]
other
  melting point: 94 to 95 °C

## Cc1ccccc1CN1CCc2ccc(C(=O)CCCC3CCN(Cc4ccccc4C)CC3)cc2CC1 [Example 127, 4-[1-[(2-Methylphenyl)methyl]-4-piperidinyl]-1-[3-[(2-methylphenyl)methyl]-2,3,4,5-tetrahydro-1H-3-benzazepin-7-yl]-1-butanone Dihydrochloride]
[3]; [5]
  cAMP: 554.0* pmol/ml
[3]; [6]
  cAMP: 100.0* pmol/ml
[3]; [7]
  cAMP: 10.1* pmol/ml
[3]; [8]
  cAMP: 4.7 pmol/mL
[3]; [9]
  cAMP: 3.6 pmol/mL

## Cc1ccccc1CN1CCc2ccc(C(=O)CCCC3CCN(Cc4cccc(Cl)c4)CC3)cc2CC1 [Example 130]
[3]; [5]
  cAMP: 430.6* pmol/ml
[3]; [6]
  cAMP: 23.5* pmol/ml
[3]; [7]
  cAMP: 5.7* pmol/ml
[3]; [8]
  cAMP: 4.5 pmol/mL
[3]; [9]
  cAMP: 3.4 pmol/mL

## O=C(CCCC1CCN(Cc2cccc(O)c2)CC1)c1ccc2c(c1)CCN(Cc1ccccc1)CC2 [Example 157, 4-[1-[(3-Hydroxyphenyl)methyl]-4-piperidinyl]-1-[3-(phenylmethyl)-2,3,4,5-tetrahydro-1H-3-benzazepin-7-yl]-1-butanone]
other
  melting point: 88 to 94 °C

## O=C(O)c1ccc(CN2CCC(CCCC(=O)c3ccc4c(c3)CCN(Cc3ccccc3)CC4)CC2)cc1 [Example 183, 4-[[4-[4-[3-(Phenylmethyl)-2,3,4,5-tetrahydro-1H-3-benzazepin-7-yl]-4-oxobutyl]-1-piperidinyl]methyl]benzoic Acid]
other
  melting point: 165 to 176 °C

## Cc1ccccc1CN1CCc2ccc(C(=O)CCCC3CCN(Cc4ccccc4C(=O)O)CC3)cc2CC1 [Example 253, 2-[[4-[4-[3-[(2-Methylphenyl)methyl]-2,3,4,5-tetrahydro-1H-3-benzazepin-,7-yl]-4-oxobutyl]-1-piperidinyl]methyl)benzoic Acid]
other
  melting point: 129 to 132 °C

## Cc1ccccc1CN1CCc2ccc(C(=O)CCCC3CCN(Cc4cccc(C(=N)N)c4)CC3)cc2CC1 [Example 260]
other
  melting point: 150 to 152 °C

## N#Cc1ccccc1CN1CCc2ccc(C(=O)CCCC3CCN(Cc4ccccc4Cl)CC3)cc2CC1 [Example 265, 4-[1-[(2-Chlorophenyl)methyl]-4-piperidinyl]-1-[3-[(2-cyanophenyl)methyl]-2,3 4,5-tetrahydro-1H-3-benzazepin-7-yl]-1-butanone]
other
  melting point: 103 to 104 °C

## N#Cc1cccc(CN2CCc3ccc(C(=O)CCCC4CCN(Cc5ccccc5Cl)CC4)cc3CC2)c1 [Example 267, 4-[1-[(2-Chlorophenyl)methyl]-4-piperidinyl]-1-[3-[(3-cyanophenyl)methyl]-2,3,4,5-tetrahydro-1H-3-benzazepin-7-yl]-1-butanone]
other
  melting point: 121 to 122 °C
